# Measurements published in publication PMC9743090, “Induction of Ferroptosis in Glioblastoma and Ovarian Cancers by a New Pyrrole Tubulin Assembly Inhibitor” (Journal of Medicinal Chemistry, 2022).
# “Also recorded” adds a separate entry of the source.
# How the values were obtained:
# Format in all cases: cell-based
# [1] = tested on: human primary T lymphocytes; assay: Toxicity on human primary T lymphocytes (annexin V / propidium iodide flow cytometry); details: 48 or 72 h
# Procedure: Cell lines were obtained from the American Type Culture Collection (ATCC), Rockville, MD. U87 MG cells were cultured in minimum essential medium (MEM) supplemented with 10% fetal bovine serum, 1% penicillin/streptomycin, 1% glutamine, 1% sodium pyruvate, and 1% nonessential amino acids. OVCAR-3 cells were cultured in Dulbecco’s modified eagle medium (DMEM) purchased from Sigma Aldrich (cat. no. D6546) supplemented with 20% fetal bovine serum,1% penicillin/streptomycin, 1% glutamine, 1% sodium pyruvate, 1% Hepes, and 0.01 μg/mL insulin (Sigma Aldrich, cat. no. 19278). […] Healthy donors’ peripheral blood mononuclear cells (PBMCs) were isolated by Lymphoprep (Nycomed) gradient centrifugation. T lymphocytes were negatively selected from PBMCs using a magnetic Dynabeads Untouched Human T Cells Kit (Thermo Fisher Scientific) following the manufacturer’s instructions.
# Apoptotic cell death was evaluated using the APC Annexin-V Apoptosis Detection Kit with PI (Thermo Fisher Scientific). Briefly, 1.5 × 10^6/mL cells were cultured in 48-well plates, untreated or treated with different concentrations of 15 for 48 or 72 h. Cells were then stained using annexin-V/APC and propidium iodide according to the manufacturer’s instructions. Cell populations were acquired using a FACS Canto II flow cytometer (BD Biosciences). […]
# OVCAR-3 OC cells = assay: OVCAR-3 proliferation assay (cell count, Trypan Blue); details: Homo sapiens, 48 h incubation, read-out: IC50 cell viability OVCAR-3
# Procedure: (§1) The methodology for the evaluation of the growth of human MCF-7 breast carcinoma cells was previously described, except that cells were grown for 96 h for IC50 determinations.[66] U-87 MG and OVCAR-3 proliferation assays were performed plating 10^4 cells/cm^2 in a Multiwell 24. The day after, cells were treated with compound 15, and DMSO was used as a control. Cells were counted 48 h later with a Bürker counting chamber, after dilution in TrypanBlue (#T6146 Sigma-Aldrich).
# All experiments were performed multiple times to reach statistical significance, as specified in the figure legends. Statistical analysis was performed using GraphPad Prism version 7.0 for Mac. IC50 values were calculated by using a nonlinear regression formula, using the percentage of cells number and the logarithmic value of drug concentrations. Data were analyzed with analysis of variance (one-way ANOVA test). Data with *p < 0.05 were considered statistically significant.
# [2] = tested on: MCF-7 human breast carcinoma cells; assay: Inhibition of the growth of MCF-7 human breast carcinoma cells
# Procedure: as §1
compound,measurement,setting,value
"COc1cc(C(=O)c2cn(-c3ncccn3)cc2-c2ccco2)cc(OC)c1OC [Compound 15, (4-(Furan-2-yl)-1-(pyrimidyl-2-yl)-1H-pyrrol-3-yl)(3,4,5-trimethoxyphenyl)methanone]",cell viability / toxicity,[1]; 0.1 μM,did not change cell viability; also recorded: not toxic
same,cell viability / toxicity,[1]; 1.0 or 2.5 μM,some cytotoxicity was observed
same,IC50,OVCAR-3 OC cells,2.85 nM
same,Inhibition of MCF-7 cell growth (in words),[2],strong inhibition
same,IC50,"[2]; Homo sapiens, MCF7, inhibition of cell growth, cells grown for 96 h, read-out: MCF-7 IC50 ± SD",4 ± 1 nM
